Source: ChEMBL document CHEMBL5523678, “Synthesis and clinical application of new drugs approved by FDA in 2023” (Eur J Med Chem, 2024)

Tests used:
[1] = Inhibition of Drosophila melanogaster GABA receptor
[2] = Inhibition of Gamma secretase (unknown origin); design: species or system Homo sapiens

IC50 [1] [nM]	IC50 [2] [nM]	Structure (SMILES)
23.8	–	Cc1cc(C2=NO[C@@](c3cc(Cl)c(Cl)c(Cl)c3)(C(F)(F)F)C2)sc1C(=O)NCC(=O)NCC(F)(F)F [LOTILANER]
–	6.2	CCC[C@H](N[C@H]1CCc2cc(F)cc(F)c2C1)C(=O)Nc1cn(C(C)(C)CNCC(C)(C)C)cn1 [NIROGACESTAT]
